In patent US11452717B2, “Small molecule activators of nicotinamide phosphoribosyltransferase (NAMPT) and uses thereof” (Sanford Burnham Prebys Medical Discovery Institute, priority 2017, dated 2022):

Each compound was assayed against NAMPT enzyme (Homo sapiens (Human), UniProt P43490) (assay: Enzyme Assay and NMN Detection (NAMPT reaction, fluorescence detection of NMN)). Conditions: Table B-2; NAMPT activation, NMN formation.
NAMPT enzyme, sequence (P43490 whole entry, species assumed): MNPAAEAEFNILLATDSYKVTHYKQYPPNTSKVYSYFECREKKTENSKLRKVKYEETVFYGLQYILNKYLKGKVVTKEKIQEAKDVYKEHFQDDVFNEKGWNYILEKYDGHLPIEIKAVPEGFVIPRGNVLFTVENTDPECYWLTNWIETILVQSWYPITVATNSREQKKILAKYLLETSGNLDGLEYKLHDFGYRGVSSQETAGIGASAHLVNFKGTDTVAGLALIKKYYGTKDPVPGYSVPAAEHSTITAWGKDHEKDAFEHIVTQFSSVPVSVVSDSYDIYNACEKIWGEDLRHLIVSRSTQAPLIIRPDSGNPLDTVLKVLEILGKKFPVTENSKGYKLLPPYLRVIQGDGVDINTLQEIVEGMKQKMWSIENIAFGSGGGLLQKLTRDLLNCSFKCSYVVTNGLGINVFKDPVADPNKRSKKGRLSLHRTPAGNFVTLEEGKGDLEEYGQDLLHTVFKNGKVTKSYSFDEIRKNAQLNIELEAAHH
Assay type: biochemical
Method: NAMPT reaction was performed in 50 mM HEPES, pH 7.5, containing 5 mM MgCl2, 0.1% Prionex, 0.005% Tween 20, and 1 mM TCEP at room temperature in Greiner 384-well black polypropylene plates. The concentration of substrates and enzymes in the final assay were as follows: ATP (120 uM), nicotinamide (5 uM), phosphoribosylpyrophosphate (6.25 uM), NAMPT enzyme (16 nM), pyrophosphatase (0.04 U/ml) in the final reaction volume 6 uL. Following 2 h incubation the reaction was stopped by addition 2.5 ul 20% acetophenone in dimethyl sulfoxide (DMSO) and 2.5 ul 2 MKOH. Plates were centrifuges and added with 10.5 ul 88% formic acid. The fluorescence (ex380/em460) was measured following another short incubation and 30 min incubation. The increased concentration of NMN was determined from a calibration curve obtained at the time of experiment.
O=C(NCc1ccncc1)Nc1ccc(C(=O)N2CCc3ccccc3C2)cc1 [1-(Pyridin-4-ylmethyl)-3-(4-(1,2,3,4-tetrahydroisoquinoline-2-carbonyl)phenyl)urea] gave an EC50 of 100 to 2000 nM.
In the case of O=C(NCc1ccncc1)Nc1ccc(C(=O)N2CCCC2)cc1 [1-(Pyridin-4-ylmethyl)-3-(4-(pyrrolidine-1-carbonyl)phenyl)urea], the EC50 is reported as 5000 to 20000 nM.
With O=C(NCc1ccncc1)Nc1ccc(OC(F)(F)F)cc1 [1-(Pyridin-4-ylmethyl)-3-(4-(trifluoromethoxy)phenyl)urea] the EC50 was greater than 20000 nM.
O=C(NCc1ccncc1)Nc1ccc(C(F)(F)F)cc1 [1-(Pyridin-4-ylmethyl)-3-(4-(trifluoromethyl)phenyl)urea] was tested, and the EC50 was 5000 to 20000 nM.
Cc1ccc(NC(=O)NCc2ccncc2)cc1 [1-(Pyridin-4-ylmethyl)-3-(p-tolyl)urea] showed an EC50 greater than 20000 nM.

Same assay, conditions: Table B-3; NAMPT activation, NMN formation
Compound O=C(NCc1ccccn1)Nc1ccc(OC(F)(F)F)cc1 [1-(Pyridin-2-ylmethyl)-3-(4-(trifluoromethoxy)phenyl)urea] has an EC50 greater than 20000 nM.
Work on O=C(NCc1ccccn1)Nc1ccc(C(F)(F)F)cc1 [1-(Pyridin-2-ylmethyl)-3-(4-(trifluoromethyl)phenyl)urea] yielded an EC50 greater than 20000 nM.
Work on Cc1ccc(NC(=O)NCc2ccccn2)cc1 [1-(Pyridin-2-ylmethyl)-3-(p-tolyl)urea] yielded an EC50 greater than 20000 nM.
O=C(NCc1cccnc1)Nc1ccc(OC(F)(F)F)cc1 [1-(Pyridin-3-ylmethyl)-3-(4-(trifluoromethoxy)phenyl)urea] gave an EC50 greater than 20000 nM.
For O=C(NCc1cccnc1)Nc1ccc(C(F)(F)F)cc1 [1-(Pyridin-3-ylmethyl)-3-(4-(trifluoromethyl)phenyl)urea], the EC50 was greater than 20000 nM.
Work on Cc1ccc(NC(=O)NCc2cccnc2)cc1 [1-(Pyridin-3-ylmethyl)-3-(p-tolyl)urea] yielded an EC50 greater than 20000 nM.

Same assay, conditions: Table B-4; NAMPT activation, NMN formation
In the case of Cc1ccccc1-c1ccccc1S(=O)(=O)c1ccc(NC(=O)NCc2cn[nH]c2)cc1 [1-((1H-Pyrazol-4-yl)methyl)-3-(4-((2′-methyl-[1,l′-biphenyl]-2-yl)sulfonyl)phenyl)urea], the EC50 is reported as 100 to 2000 nM.
Work on O=C(NCc1cn[nH]c1)Nc1ccc(S(=O)(=O)c2cccc(F)c2)cc1 [1-((1H-Pyrazol-4-yl)methyl)-3-(4-((3-fluorophenyl)sulfonyl)phenyl)urea] yielded an EC50 of less than 100 nM.
N#Cc1cccc(-c2ccccc2S(=O)(=O)c2ccc(NC(=O)NCc3cn[nH]c3)cc2)c1 [1-((1H-Pyrazol-4-yl)methyl)-3-(4-((3′-cyano-[1,1′-biphenyl]-2-yl)sulfonyl)phenyl)urea] showed an EC50 of 5000 to 20000 nM.
COc1ccccc1-c1csc(Nc2ccc(NC(=O)NCc3cn[nH]c3)cc2)n1 [1-((1H-Pyrazol-4-yl)methyl)-3-(4-((4-(2-methoxyphenyl)thiazol-2-yl)amino)phenyl)urea] was tested, and the EC50 was 100 to 2000 nM.
COc1cccc(-c2csc(Nc3ccc(NC(=O)NCc4cn[nH]c4)cc3)n2)c1 [1-((1H-Pyrazol-4-yl)methyl)-3-(4-((4-(3-methoxyphenyl)thiazol-2-yl)amino)phenyl)urea] gave an EC50 of 100 to 2000 nM.
For COc1ccc(-c2csc(Nc3ccc(NC(=O)NCc4cn[nH]c4)cc3)n2)cc1 [1-((1H-Pyrazol-4-yl)methyl)-3-(4-((4-(4-methoxyphenyl)thiazol-2-yl)amino)phenyl)urea], the EC50 was 100 to 2000 nM.
O=C(NCc1cn[nH]c1)Nc1ccc(S(=O)(=O)c2ccc(C(F)(F)F)cc2)cc1 [1-((1H-Pyrazol-4-yl)methyl)-3-(4-((4-(trifluoromethyl)phenyl)sulfonyl)phenyl)urea] showed an EC50 of 100 to 2000 nM.
In the case of O=C(NCc1cn[nH]c1)Nc1ccc(S(=O)(=O)c2ccc(F)cc2)cc1 [1-((1H-Pyrazol-4-yl)methyl)-3-(4-((4-fluorophenyl)sulfonyl)phenyl)urea], the EC50 is reported as less than 100 nM.
O=C(NCc1cn[nH]c1)Nc1ccc(Nc2nc(-c3ccccc3)cs2)cc1 [1-((1H-Pyrazol-4-yl)methyl)-3-(4-((4-phenylthiazol-2-yl)amino)phenyl)urea] gave an EC50 of 100 to 2000 nM.
With N#Cc1ccc(-c2ccccc2S(=O)(=O)c2ccc(NC(=O)NCc3cn[nH]c3)cc2)cc1 [1-((1H-Pyrazol-4-yl)methyl)-3-(4-((4′-cyano-[1,1′-biphenyl]-2-yl)sulfonyl)phenyl)urea] the EC50 was 5000 to 20000 nM.
O=C(NCc1cn[nH]c1)Nc1ccc(Nc2ncc(-c3ccccc3)s2)cc1 [1-((1H-Pyrazol-4-yl)methyl)-3-(4-((5-phenylthiazol-2-yl)amino)phenyl)urea] gave an EC50 of 100 to 2000 nM.
O=C(NCc1cn[nH]c1)Nc1ccc(S(=O)(=O)c2ccccc2-c2ccccc2)cc1 [1-((1H-Pyrazol-4-yl)methyl)-3-(4-([1,1′-biphenyl]-2-ylsulfonyl)phenyl)urea] was tested, and the EC50 was less than 100 nM.
O=C(NCc1cn[nH]c1)Nc1ccc(S(=O)(=O)c2cccc(-c3ccccc3)c2)cc1 [1-((1H-Pyrazol-4-yl)methyl)-3-(4-([1,1′-biphenyl]-3-ylsulfonyl)phenyl)urea] gave an EC50 of 100 to 2000 nM.
In the case of O=C(NCc1cn[nH]c1)Nc1ccc(-c2nc3ccccc3s2)cc1 [1-((1H-Pyrazol-4-yl)methyl)-3-(4-(benzo[d]thiazol-2-yl)phenyl)urea], the EC50 is reported as 5000 to 20000 nM.
Work on O=C(NCc1cn[nH]c1)Nc1ccc(Nc2nc3ccccc3s2)cc1 [1-((1H-Pyrazol-4-yl)methyl)-3-(4-(benzo[d]thiazol-2-ylamino)phenyl)urea] yielded an EC50 greater than 20000 nM.
For O=C(NCc1cn[nH]c1)Nc1ccc(S(=O)(=O)c2ccccn2)cc1 [1-((1H-Pyrazol-4-yl)methyl)-3-(4-(pyridin-2-ylsulfonyl)phenyl)urea], the EC50 was 100 to 2000 nM.
Compound O=C(NCc1cn[nH]c1)Nc1ccc(S(=O)(=O)c2ccncc2)cc1 [1-((1H-Pyrazol-4-yl)methyl)-3-(4-(pyridin-4-ylsulfonyl)phenyl)urea] has an EC50 of 100 to 2000 nM.
Work on O=C(NCc1cn[nH]c1)Nc1ccc(S(=O)(=O)c2cncnc2)cc1 [1-((1H-Pyrazol-4-yl)methyl)-3-(4-(pyrimidin-5-ylsulfonyl)phenyl)urea] yielded an EC50 of 100 to 2000 nM.

Same assay, conditions: Table B-5; NAMPT activation, NMN formation
Compound O=C(NCc1cnco1)Nc1ccc(-c2ncc(-c3ccccc3)s2)cc1 [1-(Oxazol-5-ylmethyl)-3-(4-(5-phenylthiazol-2-yl)phenyl)urea] has an EC50 of 5000 to 20000 nM.
O=C(NCc1cnco1)Nc1ccc(S(=O)(=O)c2cccc(C(F)(F)F)c2)cc1 [1-(Oxazol-5-ylmethyl)-3-(4-((3-(trifluoromethyl)phenyl)sulfonyl)phenyl)urea] showed an EC50 of 100 to 2000 nM.
Work on O=C(NCc1cnco1)Nc1ccc(S(=O)(=O)c2ccc(C(F)(F)F)cc2)cc1 [1-(Oxazol-5-ylmethyl)-3-(4-((4-(trifluoromethyl)phenyl)sulfonyl)phenyl)urea] yielded an EC50 of 100 to 2000 nM.
In the case of O=C(NCc1cnco1)Nc1ccc(Nc2nc(-c3ccccc3)cs2)cc1 [1-(Oxazol-5-ylmethyl)-3-(4-((4-phenylthiazol-2-yl)amino)phenyl)urea], the EC50 is reported as 2000 to 5000 nM.
O=C(NCc1cnco1)Nc1ccc(Nc2ncc(-c3ccccc3)s2)cc1 [1-(Oxazol-5-ylmethyl)-3-(4-((5-phenylthiazol-2-yl)amino)phenyl)urea] gave an EC50 of 100 to 2000 nM.
Work on O=C(NCc1cnco1)Nc1ccc(S(=O)(=O)c2ccccn2)cc1 [1-(Oxazol-5-ylmethyl)-3-(4-(pyridin-2-ylsulfonyl)phenyl)urea] yielded an EC50 of 100 to 2000 nM.
Work on O=C(NCc1cnco1)Nc1ccc(S(=O)(=O)c2ccncc2)cc1 [1-(Oxazol-5-ylmethyl)-3-(4-(pyridin-4-ylsulfonyl)phenyl)urea] yielded an EC50 of 100 to 2000 nM.
Compound O=C(NCc1cnco1)Nc1ccc(S(=O)(=O)c2ccccc2C(F)(F)F)cc1 [1-Oxazol-5-ylmethyl-3-[4-(2-trifluoromethyl-benzenesulfonyl)-phenyl]-urea] has an EC50 of 100 to 2000 nM.
O=C(NCc1cnco1)Nc1ccc(S(=O)(=O)c2ccc(OC(F)(F)F)cc2)cc1 [1-Oxazol-5-ylmethyl-3-[4-(4-trifluoromethoxy-benzenesulfonyl)-phenyl]-urea] gave an EC50 of 100 to 2000 nM.
O=C(NCc1cnco1)Nc1ccc(S(=O)(=O)c2cnccn2)cc1 [1-Oxazol-5-ylmethyl-3-[4-(pyrazine-2-sulfonyl)-phenyl]-urea] gave an EC50 of 100 to 2000 nM.
O=C(NCc1cnco1)Nc1ccc(S(=O)(=O)c2cccnc2)cc1 [1-Oxazol-5-ylmethyl-3-[4-(pyridine-3-sulfonyl)-phenyl]-urea] was tested, and the EC50 was 100 to 2000 nM.
For O=C(NCc1cnco1)Nc1ccc(S(=O)(=O)c2ncccn2)cc1 [1-Oxazol-5-ylmethyl-3-[4-(pyrimidine-2-sulfonyl)-phenyl]-urea], the EC50 was 5000 to 20000 nM.
O=C(NCc1cnco1)Nc1ccc(S(=O)(=O)c2nccs2)cc1 [1-Oxazol-5-ylmethyl-3-[4-(thiazole-2-sulfonyl)-phenyl]-urea] was tested, and the EC50 was 100 to 2000 nM.
With Cc1ccccc1S(=O)(=O)c1ccc(NC(=O)NCc2cnco2)cc1 [1-Oxazol-5-ylmethyl-3-[4-(toluene-2-sulfonyl)-phenyl]-urea] the EC50 was 100 to 2000 nM.
Cc1cccc(S(=O)(=O)c2ccc(NC(=O)NCc3cnco3)cc2)c1 [1-Oxazol-5-ylmethyl-3-[4-(toluene-3-sulfonyl)-phenyl]-urea] showed an EC50 of 100 to 2000 nM.
For Cc1ccc(S(=O)(=O)c2ccc(NC(=O)NCc3cnco3)cc2)cc1 [1-Oxazol-5-ylmethyl-3-[4-(toluene-4-sulfonyl)-phenyl]-urea], the EC50 was 2000 to 5000 nM.

Same assay, conditions: Table B-6; NAMPT activation, NMN formation
With O=C(NCc1cn[nH]c1)Nc1ccc(S(=O)(=O)c2cccc(C(F)(F)F)c2)cc1 [1-((1H-Pyrazol-4-yl)methyl)-3-(4-((3-(trifluoromethyl)phenyl)sulfonyl)phenyl)urea] the EC50 was 100 to 2000 nM.
Work on O=C(NCc1ccncc1)Nc1ccc(S(=O)(=O)c2cccc(C(F)(F)F)c2)cc1 [1-(Pyridin-4-ylmethyl)-3-(4-((3-(trifluoromethyl)phenyl)sulfonyl)phenyl)urea] yielded an EC50 of less than 100 nM.
With O=C(NCc1ccncc1)Nc1ccc(S(=O)(=O)c2ccncc2)cc1 [1-(Pyridin-4-ylmethyl)-3-(4-(pyridin-4-ylsulfonyl)phenyl)urea] the EC50 was 100 to 2000 nM.
